Measurements as given in patent US8354436B2 (4SC Discovery GmbH, priority 2011, dated 2013).
Like-named read-outs stand apart in the source and are kept apart here.

What was measured:
Format in all cases: cell-based
Settings in all cases: 48 hours
[1] = tested on: IFN-γ; assay: IFN-γ production by PHA-stimulated human PBMC (OptEIA human IFN-g ELISA)
In short: (§1)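 PBMC from healthy donors, 1×10^5/well, 2 μg/ml PHA + compound, 48 h. Supernatant cytokine by Luminex bead assay or ELISA as listed. Screen at 10/1/0.1/0.01 μM; IC50 via semilog titration.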

[2] = tested on: IL-17FF; assay: IL-17FF production by PHA-stimulated human PBMC (human IL-17F ELI-Pair)
In short: as §1

[3] = tested on: PBMC from healthy human donors; assay: T cell proliferation assay (PHA-stimulated human PBMC, BrdU ELISA)
In short: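 Proliferation was quantified by BrdU ELISA 48 hours after starting culture of 1×10⁵ human PBMC per well with test compound and 2 μg/ml phytohaemagglutinin. Cells came from healthy donors via Ficoll separation and were kept in RPMI1640 with 10% dialysed heat-inactivated FCS.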

[4] = human PBMC, 2 μg/ml PHA, read-out: C: IC50 (IFNγ)
[5] = human PBMC, 2 μg/ml PHA, read-out: B: IC50 (IL-17FF)
[6] = human PBMC, 2 μg/ml PHA, read-out: D: IC50 (Tcell proliferation)
[7] = PHA-stimulated human PBMC, column C, read-out: IC50 (IFNγ)
[8] = PHA-stimulated human PBMC, column B, read-out: IC50 (IL-17FF)
[9] = PHA-stimulated human PBMC, column D, read-out: IC50 (Tcell proliferation)

Row | SMILES | IC50 [1, 4] [nM] | IC50 [2, 5] [nM] | IC50 [1, 7] [nM] | IC50 [2, 8] [nM] | IC50 [3, 6] [nM] | IC50 [3, 9] [nM]
1 | Cc1nnc(-c2c(-c3c(F)cccc3Cl)noc2-c2cnn(-c3ccncc3)c2C(F)(F)F)o1 [Example B-19, 2-(3-(2-chloro-6-fluorophenyl)-5-(1-(pyridin-4-yl)-5-(trifluoromethyl)-1H-pyrazol-4-yl)isoxazol-4-yl)-5-methyl-1,3,4-oxadiazole] | 100 to 1000 | 100 to 1000 | – | – | 100 to 1000 | –
2 | Cc1nnc(-c2c(-c3c(F)cccc3Cl)noc2-c2cnn(-c3ccccc3Cl)c2C(F)(F)F)s1 [Example B-20, 3-(2-chloro-6-fluorophenyl)-5-(1-(2-chlorophenyl)-5-(trifluoromethyl)-1H-pyrazol-4-yl)-4-(5-methyl-1,3,4-thiadiazol-2-yl)isoxazole] | 100 to 1000 | 100 to 1000 | – | – | 100 to 1000 | –
3 | Cc1nnc(-c2c(-c3c(F)cccc3Cl)noc2-c2cnn(-c3cccnc3)c2C(F)(F)F)s1 [Example B-21, 3-(2-chloro-6-fluorophenyl)-4-(5-methyl-1,3,4-thiadiazol-2-yl)-5-(1-(pyridin-3-yl)-5-(trifluoromethyl)-1H-pyrazol-4-yl)isoxazole] | 10 to 100 | 10 to 100 | – | – | 10 to 100 | –
4 | Cc1nnc(-c2c(-c3c(F)cccc3Cl)noc2-c2cnn(-c3ccccn3)c2C(F)(F)F)o1 [Example B-26, 2-(3-(2-chloro-6-fluorophenyl)-5-(1-(pyridin-2-yl)-5-(trifluoromethyl)-1H-pyrazol-4-yl)isoxazol-4-yl)-5-methyl-1,3,4-oxadiazole] | 10 to 100 | 10 to 100 | – | – | 100 to 1000 | –
5 | Cc1nnc(-c2c(-c3c(F)cccc3Cl)noc2-c2cnn(-c3ccccn3)c2C(F)(F)F)s1 [Example B-27, 3-(2-chloro-6-fluorophenyl)-4-(5-methyl-1,3,4-thiadiazol-2-yl)-5-(1-(pyridin-2-yl)-5-(trifluoromethyl)-1H-pyrazol-4-yl)isoxazole] | 10 to 100 | 10 to 100 | – | – | 10 to 100 | –
6 | Fc1cccc(Cl)c1-c1noc(-c2cnn(-c3ccccc3Cl)c2C(F)(F)F)c1-c1nccs1 [Example B-29, 3-(2-chloro-6-fluorophenyl)-5-(1-(2-chlorophenyl)-5-(trifluoromethyl)-1H-pyrazol-4-yl)-4-(thiazol-2-yl)isoxazole] | 100 to 1000 | 1000 to 10000 | – | – | 1000 to 10000 | –
7 | Fc1ccccc1-n1ncc(-c2onc(-c3c(F)cccc3Cl)c2-c2nccs2)c1C(F)(F)F [Example B-30, 3-(2-chloro-6-fluorophenyl)-5-(1-(2-fluorophenyl)-5-(trifluoromethyl)-1H-pyrazol-4-yl)-4-(thiazol-2-yl)isoxazole] | 10 to 100 | 10 to 100 | – | – | 10 to 100 | –
8 | Fc1cccc(Cl)c1-c1noc(-c2cnn(-c3cccnc3)c2C(F)(F)F)c1-c1cnco1 [Example B-32, 3-(2-chloro-6-fluorophenyl)-4-(oxazol-5-yl)-5-(1-(pyridin-3-yl)-5-(trifluoromethyl)-1H-pyrazol-4-yl)isoxazole] | 100 to 1000 | 1000 to 10000 | – | – | 1000 to 10000 | –
9 | Fc1cccc(Cl)c1-c1noc(-c2cnn(-c3ccncc3)c2C(F)(F)F)c1-c1cnco1 [Example B-33, 3-(2-chloro-6-fluorophenyl)-4-(oxazol-5-yl)-5-(1-(pyridin-4-yl)-5-(trifluoromethyl)-1H-pyrazol-4-yl)isoxazole] | 100 to 1000 | 1000 to 10000 | – | – | 1000 to 10000 | –
10 | COC(=O)c1c(-c2c(F)cccc2Cl)noc1-c1cnn(-c2ccccc2F)c1C(F)(F)F [Example I-1, methyl 3-(2-chloro-6-fluorophenyl)-5-(1-(2-fluorophenyl)-5-(trifluoromethyl)-1H-pyrazol-4-yl)isoxazole-4-carboxylate] | – | – | < 10 | 10 to 100 | – | 10 to 100
11 | COC(=O)c1c(-c2c(F)cccc2Cl)noc1-c1cnn(-c2ccc(F)cc2)c1C(F)(F)F [Example I-3, methyl 3-(2-chloro-6-fluorophenyl)-5-(1-(4-fluorophenyl)-5-(trifluoromethyl)-1H-pyrazol-4-yl)isoxazole-4-carboxylate] | – | – | < 10 | < 10 | – | 10 to 100
12 | CCOC(=O)c1c(-c2onc(-c3c(F)cccc3Cl)c2C(=O)OC)cnn1-c1cccc(Cl)c1 [Example I-10, methyl 3-(2-chloro-6-fluorophenyl)-5-(1-(3-chlorophenyl)-5-(ethoxycarbonyl)-1H-pyrazol-4-yl)isoxazole-4-carboxylate] | – | – | 10 to 100 | 100 to 1000 | – | 10 to 100
13 | O=C(c1c(-c2c(F)cccc2Cl)noc1-c1cnn(-c2ccccc2F)c1C(F)(F)F)N1CCOCC1 [Example I-16, (3-(2-chloro-6-fluorophenyl)-5-(1-(2-fluorophenyl)-5-(trifluoromethyl)-1H-pyrazol-4-yl)isoxazol-4-yl)(morpholino)methanone] | – | – | 100 to 1000 | 100 to 1000 | – | 1000 to 10000
14 | CN1CCN(C(=O)c2c(-c3c(F)cccc3Cl)noc2-c2cnn(-c3ccccc3F)c2C(F)(F)F)CC1 [Example I-17, (3-(2-chloro-6-fluorophenyl)-5-(1-(2-fluorophenyl)-5-(trifluoromethyl)-1H-pyrazol-4-yl)isoxazol-4-yl)(4-methylpiperazin-1-yl)methanone] | – | – | 100 to 1000 | 100 to 1000 | – | 1000 to 10000

The next lines start with results.

Row | IC50 [1, 4] [nM] | IC50 [2, 5] [nM] | IC50 [1, 7] [nM] | IC50 [2, 8] [nM] | SMILES | IC50 [3, 6] [nM] | IC50 [3, 9] [nM]
15 | 1000 to 10000 | 1000 to 10000 | – | – | Cc1nnc(-c2c(-c3c(F)cccc3Cl)noc2-c2cnn(-c3ccccc3Cl)c2C(F)(F)F)o1 [Example B-18, 2-(3-(2-chloro-6-fluorophenyl)-5-(1-(2-chlorophenyl)-5-(trifluoromethyl)-1H-pyrazol-4-yl)isoxazol-4-yl)-5-methyl-1,3,4-oxadiazole] | 1000 to 10000 | –
16 | 10 to 100 | 100 to 1000 | – | – | Cc1nnc(-c2c(-c3c(F)cccc3Cl)noc2-c2cnn(-c3ccncc3)c2C(F)(F)F)s1 [Example B-22, 3-(2-chloro-6-fluorophenyl)-4-(5-methyl-1,3,4-thiadiazol-2-yl)-5-(1-(pyridin-4-yl)-5-(trifluoromethyl)-1H-pyrazol-4-yl)isoxazole] | 100 to 1000 | –
17 | 1000 to 10000 | 1000 to 10000 | – | – | Cc1nnc(-c2c(-c3c(F)cccc3Cl)noc2-c2cnn(-c3cccc(S(N)(=O)=O)c3)c2C(F)(F)F)s1 [Example B-23, 3-(4-(3-(2-chloro-6-fluorophenyl)-4-(5-methyl-1,3,4-thiadiazol-2-yl)isoxazol-5-yl)-5-(trifluoromethyl)-1H-pyrazol-1-yl)benzenesulfonamide] | 1000 to 10000 | –
18 | 10 to 100 | 10 to 100 | – | – | Fc1cccc(Cl)c1-c1noc(-c2cnn(-c3ccncc3)c2C(F)(F)F)c1-c1ccoc1 [Example B-24, 3-(2-chloro-6-fluorophenyl)-4-(furan-3-yl)-5-(1-(pyridin-4-yl)-5-(trifluoromethyl)-1H-pyrazol-4-yl)isoxazole] | 10 to 100 | –
19 | 10 to 100 | 100 to 1000 | – | – | Fc1cccc(Cl)c1-c1noc(-c2cnn(-c3ccccn3)c2C(F)(F)F)c1-c1nnco1 [Example B-25, 2-(3-(2-chloro-6-fluorophenyl)-5-(1-(pyridin-2-yl)-5-(trifluoromethyl)-1H-pyrazol-4-yl)isoxazol-4-yl)-1,3,4-oxadiazole] | 10 to 100 | –
20 | 100 to 1000 | 100 to 1000 | – | – | Fc1ccccc1-n1ncc(-c2onc(-c3c(F)cccc3Cl)c2-c2cnco2)c1C(F)(F)F [Example B-28, 3-(2-chloro-6-fluorophenyl)-5-(1-(2-fluorophenyl)-5-(trifluoromethyl)-1H-pyrazol-4-yl)-4-(oxazol-5-yl)isoxazole] | 100 to 1000 | –
21 | 100 to 1000 | 1000 to 10000 | – | – | COc1cccc(Cl)c1-c1noc(-c2cnn(-c3cccnc3)c2C(F)(F)F)c1-c1cnco1 [Example B-31, 3-(2-chloro-6-methoxyphenyl)-4-(oxazol-5-yl)-5-(1-(pyridin-3-yl)-5-(trifluoromethyl)-1H-pyrazol-4-yl)isoxazole] | 1000 to 10000 | –
22 | 100 to 1000 | 100 to 1000 | – | – | COc1cccc(Cl)c1-c1noc(-c2cnn(-c3ccccc3Cl)c2C(F)(F)F)c1-c1cnco1 [Example B-34, 3-(2-chloro-6-methoxyphenyl)-5-(1-(2-chlorophenyl)-5-(trifluoromethyl)-1H-pyrazol-4-yl)-4-(oxazol-5-yl)isoxazole] | 100 to 1000 | –
23 | – | – | 1000 to 10000 | 1000 to 10000 | CCOC(=O)c1c(-c2onc(-c3c(F)cccc3Cl)c2C(=O)OC)cnn1-c1ccc(Cl)cc1Cl [Example I-6, methyl 3-(2-chloro-6-fluorophenyl)-5-(1-(2,4-dichlorophenyl)-5-(ethoxycarbonyl)-1H-pyrazol-4-yl)isoxazole-4-carboxylate] | – | 1000 to 10000
24 | – | – | 100 to 1000 | 100 to 1000 | CCOC(=O)c1c(-c2onc(-c3c(F)cccc3Cl)c2C(=O)OC)cnn1-c1cccc(F)c1 [Example I-8, methyl 3-(2-chloro-6-fluorophenyl)-5-(5-(ethoxycarbonyl)-1-(3-fluorophenyl)-1H-pyrazol-4-yl)isoxazole-4-carboxylate] | – | 100 to 1000
25 | – | – | 100 to 1000 | 100 to 1000 | CCOC(=O)c1c(-c2onc(-c3c(F)cccc3Cl)c2C(=O)OC)cnn1-c1cccc(C#N)c1 [Example I-13, methyl 3-(2-chloro-6-fluorophenyl)-5-(1-(3-cyanophenyl)-5-(ethoxycarbonyl)-1H-pyrazol-4-yl)isoxazole-4-carboxylate] | – | 100 to 1000
